Publication PMC12779026, “α-Glycosidase activity of novel coumarin–triazole–coumarin dyads” (Turkish Journal of Chemistry, 2025)
“Also recorded” adds a separate entry of the source.

Assays:
α-glycosidase [1] = assay: α-Glycosidase inhibitory assay (spectrophotometric, 4-pNPG substrate, 405 nm); assay type: biochemical; conditions: 0.5 U/mL α-glycosidase, 5 mM 4-pNPG, phosphate buffer pH 6.9, compounds 5–250 μM
Protocol: The α-glycosidase inhibitory effects of the compounds were determined as described in the previous study. Acarbose (Sigma-Aldrich, A8980) was used as a reference compound in this study. The compounds were first dissolved in 25 mM DMSO and then diluted to 1 mM with phosphate buffer (0.1 M, pH: 6.9). In brief, the compounds and acarbose in phosphate buffer (0.1 M, pH: 6.9) were added to a 96-well plate at 5–250 μM. Then, 100 μL, 0.5 U/mL α-glycosidase (Sigma-Aldrich, G5003) was added to the wells. After 10 min, 50 μL of 5 mM p-nitrophenyl-α-D-glucopyranoside (4-pNPG) (Sigma-Aldrich, 487506) was added as a substrate to each well. After incubation for 10 min, spectrophotometric measurement was performed at 405 nm. The percentage inhibition rate of the compounds was calculated using the following formula: […]
In this formula, A0 and A1 represent the absorbance of the mixture in the absence and presence of the compound, respectively. In addition, IC50 values, which indicate the […] required to inhibit half of the enzyme activity, were calculated.

α-glycosidase [2] = assay: Kinetic analysis of α-glycosidase inhibition (Lineweaver–Burk and Dixon plots); assay type: biochemical
Protocol: To determine this, the final concentration of α-glycosidase was fixed at 0.5 U/mL. Then, different concentrations of 4-pNPG (2.5–20 mM) and varying concentrations of 4e (20 μM, 40 μM, and 100 μM) showing inhibitory potential were added to the wells. Following incubation, the absorbance values at 405 nm in the presence and absence of the compound were measured in the microplate reader. Lineweaver–Burk and Dixon plots were used to determine the inhibitor type and the inhibitory constant (Ki) of 4e. In the Lineweaver–Burk plot, the y-axis represents 1/V, the inverse of the reaction rate, while the x-axis represents 1/[S], the inverse of the substrate concentration. According to this plot, the points intersecting the y-axis give the value 1/Vmax. From here, the Vmax value, which represents the maximum reaction rate, can be determined. Km, a value indicating the enzyme’s interest in the substrate, can be determined from the points where the line intersects the x-axis. The type of inhibition is then determined by analyzing the changes in Vmax and Km. The Dixon graph is used to calculate the Ki value, which indicates the inhibitory potential of 4e.

IC50 (α-glycosidase [1]) [µM] | Ki (α-glycosidase [2]; Dixon plot) [µM] | SMILES | Type (of inhibition) (α-glycosidase [2]; Lineweaver–Burk plot, 4-pNPG 2.5–20 mM, 4e 20, 40, 100 μM)
109 ± 2.4 |  | COc1ccc(-c2cc3ccc(OCc4cn(Cc5cc(=O)oc6c(C)c(O)ccc56)nn4)cc3oc2=O)cc1 [4c, 7-Hydroxy-4-((4-(((3-(4-methoxyphenyl)-2-oxo-2H-chromen-7-yl)oxy)methyl)-1H-1,2,3-triazol-1-yl)methyl)-8-methyl-2H-chromen-2-one] | 
123 ± 4.2 |  | Cc1ccc(-c2cc3ccc(OCc4cn(Cc5cc(=O)oc6c(C)c(O)ccc56)nn4)cc3oc2=O)cc1 [4b, 7-Hydroxy-8-methyl-4-((4-(((2-oxo-3-(p-tolyl)-2H-chromen-7-yl)oxy)methyl)-1H-1,2,3-triazol-1-yl)methyl)-2H-chromen-2-one] | 

More lines, now with the values behind:

SMILES | IC50 (α-glycosidase [1]) [µM] | Ki (α-glycosidase [2]; Dixon plot) [µM] | Type (of inhibition) (α-glycosidase [2]; Lineweaver–Burk plot, 4-pNPG 2.5–20 mM, 4e 20, 40, 100 μM)
Cc1c(O)ccc2c(Cn3cc(COc4ccc5cc(-c6ccccc6)c(=O)oc5c4)nn3)cc(=O)oc12 [4a, 7-Hydroxy-8-methyl-4-((4-(((2-oxo-3-phenyl-2H-chromen-7-yl)oxy)methyl)-1H-1,2,3-triazol-1-yl)methyl)-2H-chromen-2-one] | 95 ± 3.55 |  | 
Cc1c(O)ccc2c(Cn3cc(COc4ccc5cc(-c6ccc(F)cc6)c(=O)oc5c4)nn3)cc(=O)oc12 [4d, 4-((4-(((3-(4-Fluorophenyl)-2-oxo-2H-chromen-7-yl)oxy)methyl)-1H-1,2,3-triazol-1-yl)methyl)-7-hydroxy-8-methyl-2H-chromen-2-one] | 93.5 ± 1.7 |  | 
Cc1c(O)ccc2c(Cn3cc(COc4ccc5cc(-c6ccc([N+](=O)[O-])cc6)c(=O)oc5c4)nn3)cc(=O)oc12 [4e, 7-Hydroxy-8-methyl-4-((4-(((3-(4-nitrophenyl)-2-oxo-2H-chromen-7-yl)oxy)methyl)-1H-1,2,3-triazol-1-yl)methyl)-2H-chromen-2-one] | 39 ± 0.77 | 19.95 ± 0.15 | mixed type; also recorded: mixed inhibitor
C[C@H]1O[C@H](O[C@H]2[C@H](O)[C@@H](O)[C@@H](O[C@H]3[C@H](O)[C@@H](O)C(O)O[C@@H]3CO)O[C@@H]2CO)[C@H](O)[C@@H](O)[C@@H]1N[C@H]1C=C(CO)[C@@H](O)[C@H](O)[C@H]1O (some centres unmarked) [Acarbose, reference compound] | 64.5 ± 2.53 |  | 
